Literature values, collected in patent publication US20030021750A1, “Novel functional agents for magnetic resonance imaging” (priority 2001, published 2003).

Settings: thermodynamic stability of the Gd3+ chelate; background statement

| Compound | stability constant (K) / formation constant, logK |
| --- | --- |
| O=C([O-])CN(CCN(CC(=O)[O-])CC(=O)[O-])CCN(CC(=O)[O-])CC(=O)[O-].[Gd+3] [Gd(DTPA)^2−] | 22.4 |
| O=C([O-])CN1CCN(CC(=O)[O-])CCN(CC(=O)[O-])CCN(CC(=O)[O-])CC1.[Gd+3] [Gd-DOTA] | 28.5 |
